These results are taken from US6096732A, “Steroid esters, process for their production and their pharmaceutical use” (Schering AG, priority 1996, dated 2000).

Where only a bound is given, the exact number is not on record here.

Data set [1] concerns breast cancer cell line ZR-75. The conditions noted are these: standard treatment; cited from earlier work.
The format of data set [2] is physicochemical. Here is the method: Solubility Studies of the Esters that are Mentioned in Examples 1 to 6
In the following table, the solubility of compounds 1 to 6 is depicted in comparison to unesterified reference compound 1 (Z)-6'-(4-cyanophenyl)-9,11α-dihydro-17β-hydroxy-17α-(3-hydroxy-1-propenyl)-4'H-naphtho[3',2',1':10,9,11]estra-4-en-3-one (Example 1 in DE-A 4216003). For solubility, the temperature is indicated in °C., in which 50 mg of substance is dissolved in 1 ml of a 1:4 benzyl benzoate/castor oil mixture.

Data set [3] is classed as physicochemical. The procedure: Studies on Hydrolytic Stability of the Esters According to the Invention
The hydrolytic stability of the esters under strongly basic conditions can be used to assess whether the compounds have adequate stability under physiological conditions.
In each case, 10 mg of compounds 1, 3 and 4 was dissolved at 23° C. in 10 ml of dioxane and mixed with 1 ml of a 1N aqueous sodium hydroxide solution. In each case, 11 samples were drawn, acidified to pH 6 and the ester:alcohol ratio was determined per HPLC. In the graphic visualization,the portion of ester is depicted in percent as a function of the saponification period in hours.
This is another data set of the same source.

Data set [4] relates to human, tamoxifen-resistant ZR-75 breast cancer. As to the kind of experiment: Tumor-inhibiting action on human, tamoxifen-resistant ZR-75 breast cancer in nude mice. The data set is classed as in vivo. The conditions noted are these: s.c., 8 weeks, vs. untreated control; graph only.
Experimental: Breast cancer cell line ZR-75 is an estrogen- and progesterone receptor-positive human line, which can be transplanted serially in the thymic aplastic nude mouse. […] An underline that is used here developed a tamoxifen resistance after a prolonged treatment period.
Female nude/nude mice, 4 weeks old.
Formulation and Administration of Test Substances:
The test substances are dissolved in benzyl benzoate and castor oil (1+4), and the one-time dose is administered at a volume of 0.1 ml s.c. Treatment begins about 7 weeks after implantation (treatment of established tumors). The treatment time is at most 10 weeks.
The tumor fragments of several donor animals are implanted in the animals s.c. on both sides in the flanks. On the day of implantation and on day 60, all animals are implanted with a tamoxifen-releasing pellet (5 mg).
The mice are randomized 7 weeks after implantation of the tumors, and the treatment is begun and carried out for 8 weeks.
Tumor growth is determined by determination of the tumor surface area using a sliding gauge. The tumor surface area is calculated from the product of the longest diameter of the tumor and the diameter that is perpendicular to said longest diameter. At the end of the test, the animals are killed, the tumors are prepared outside and weighed.
The subject of data set [5] is NMU-induced breast tumor of rats. Kind of data set: Influence of the tumor growth in N-Methyl-N-nitrosourea (NMU) model in rats. In kind it is in vivo, rat (Sprague-Dawley). The conditions noted are these: p.o., 6 times per week, various dosages; vs. reference compound 3. The procedure:
Influence of the Tumor Growth in N-Methyl-N-nitrosourea (NMU)--Model in Rats
The growth of the NUM-induced breast tumor of rats is largely dependent on estrogens and gestagens and less on prolactin. Estrogen and progesterone antagonists result in inhibiting tumor growth.
Female rats (Sprague-Dawley), 55 (±3) days old; at least 9 animals per group.
The animals receive 50 mg/kg of NMU on a one-time basis. Then, the animals are checked once a week by palpation for tumor development. About 6 to 8 weeks after NMU treatment, one or more tumors develop per animal. At a minimum size of 150 mm^2 /tumor/animal, treatment (6 times per week) begins with the test substance, the determination of body weight and tumor size (with the aid of a sliding gauge; once per week).
The results for compound 1 are graphically depicted in the following figures for various dosages in each case in comparison to the untreated control, an ovariectomy group as well as reference compound 3, (Z)-6'-(4-cyanophenyl)-9,11α-dihydro-17β-hydroxy-17α-[3-(1-oxo-2-methylpropoxy)-1-propenyl]-4'H-naphtho[3',2',1':10,9,11]estr-4-en-3-one. […] This is surprising because of the only slight structural differences. [drawing 5] Tumor-Inhibiting Action on the Hormone-Sensitive Human Breast Cancer Cell Line ZR-75.

Turning to `CC/C(=C(\c1ccccc1)c1ccc(OCCN(C)C)cc1)c1ccccc1` [tamoxifen], in data set [1], the “response of ZR-75 to tamoxifen” value is recorded as “inhibiting growth”.
As for `CC(C)C(=O)OCC/C=C\[C@]1(O)CC[C@H]2[C@@H]3CCC4=CC(=O)CC[C@@]45Cc4cc(-c6ccc(C#N)cc6)ccc4[C@@H](C[C@@]21C)[C@@H]35` [Compound 2, (Z)-6'-(4-Cyanophenyl)-9,11α-dihydro-17β-hydroxy-17α-[4-(1-oxo-2-methylpropoxy)-1-butenyl]-4'H-naphtho[3',2',1':10,9,11]estr-4-en-3-one], the “Solubility (temperature at which 50 mg of substance is dissolved in 1 ml)” value (from here on “Solubility”) in data set [2] was determined as 23 °C.
`CC(C)CC(=O)OCC/C=C\[C@]1(O)CC[C@H]2[C@@H]3CCC4=CC(=O)CC[C@@]45Cc4cc(-c6ccc(C#N)cc6)ccc4[C@@H](C[C@@]21C)[C@@H]35` [Compound 3, (Z)-6'-(4-cyanophenyl)-9,11α-dihydro-17β-hydroxy-17α-[4-(1-oxo-3-methylbutoxy)-1-butenyl]-4'H-naphtho[3',2',1':10,9,11]estr-4-en-3-one]: the “Solubility” value in data set [2] turned out to be 23 °C. Also, in data set [3], the “stability compared to reference compound 3” value is recorded as “significantly improved compared to reference compound 3” and the “stability under strongly basic conditions” value is recorded as “very good stability”.
With `CC(C)CC(=O)OC/C=C\[C@]1(O)C=C[C@H]2[C@@H]3CCC4=CC(=O)CC[C@@]45Cc4cc(-c6ccc(C#N)cc6)ccc4[C@@H](C[C@@]21C)[C@@H]35` [Compound 5, (Z)-6'-(4-Cyanophenyl)-9,11α-dihydro-17β-hydroxy-17α-[3-(1-oxo-3-methylbutoxy)-1-propenyl]-4'H-naphtho[3',2',1':10,9,11]estra-4,15-dien-3-one], the “Solubility” value in data set [2] was 23 °C.
Regarding `CC(C)CC(=O)OC/C=C\[C@]1(O)CC[C@H]2[C@@H]3CCC4=CC(=O)CC[C@@]45Cc4cc(-c6ccc(C#N)cc6)ccc4[C@@H](C[C@@]21C)[C@@H]35` [Compound 1, (Z)-6'-(4-Cyanophenyl)-9,11α-dihydro-17β-hydroxy-17α-[3-(1-oxo-3-methylbutoxy)-1-propenyl]-4'H-naphtho[3',2',1':10,9,11]estr-4-en-3-one], the “inhibition of the course of growth of the tumors” value in data set [4] is reported as “inhibition of the course of growth of the tumors”. Moreover, the “Solubility” value in data set [2] came to 50 °C. Also, in data set [3], the “stability compared to reference compound 3” value is recorded as “significantly improved compared to reference compound 3” and the “stability under strongly basic conditions” value is recorded as “very good stability”. For the same compound, the tumor-inhibiting action result in data set [5] is “tumor-inhibiting action that is superior to that of reference compound 3”.
Turning to `CC(C)C(=O)OC/C=C\[C@]1(O)CC[C@H]2[C@@H]3CCC4=CC(=O)CC[C@@]45Cc4cc(-c6ccc(C#N)cc6)ccc4[C@@H](C[C@@]21C)[C@@H]35` [Reference Compound 3, (Z)-6'-(4-cyanophenyl)-9,11α-dihydro-17β-hydroxy-17α-[3-(1-oxo-2-methylpropoxy)-1-propenyl]-4'H-naphtho[3',2',1':10,9,11]estr-4-en-3-one, reference compound], in data set [2], the “Solubility” value is 100 °C.
Same read-out and setting: the value for `CC(C)C(=O)OC/C=C\[C@]1(O)C=C[C@H]2[C@@H]3CCC4=CC(=O)CC[C@@]45Cc4cc(-c6ccc(C#N)cc6)ccc4[C@@H](C[C@@]21C)[C@@H]35` [Compound 6, (Z)-6'-(4-Cyanophenyl)-9,11α-dihydro-17β-hydroxy-17α-[3-(1-oxo-2-methylpropoxy)-1-propenyl]-4'H-naphtho[3',2',1':10,9,11]estra-4,15-dien-3-one] was under 50 °C; that for `C[C@]12C[C@@H]3c4ccc(-c5ccc(C#N)cc5)cc4C[C@]45CCC(=O)C=C4CC[C@H]([C@H]35)[C@@H]1CC[C@@]2(O)/C=C\CO` [Reference Compound 1, (Z)-6'-(4-cyanophenyl)-9,11α-dihydro-17β-hydroxy-17α-(3-hydroxy-1-propenyl)-4'H-naphtho[3',2',1':10,9,11]estra-4-en-3-one, reference compound] was over 100 °C.
As to `CC(C)CC(=O)OCC/C=C\[C@]1(O)CC[C@H]2[C@@H]3CCC4=CC(=O)CC[C@@]45Cc4cc(-c6ccc(F)cc6)ccc4[C@@H](C[C@@]21C)[C@@H]35` [Compound 4, (Z)-9,11α-dihydro-6'-(4-fluorophenyl)-17β-hydroxy-17α-[4-(1-oxo-3-methylbutoxy)-1-butenyl]-4'H-naphtho[3',2',1':10,9,11]estr-4-en-3-one], the “Solubility” value in data set [2] stood at 50 °C. In data set [3], the “stability compared to reference compound 3” value is on record as “significantly improved compared to reference compound 3” and the “stability under strongly basic conditions” value is on record as “very good stability”.
